In paper PMC8296573, “Synthesis and Biological Evaluation of Fingolimod Derivatives as Antibacterial Agents” (ACS Omega, 2021):
≈ marks a conversion by molar mass, not a printed value. Where two headings read alike, the source gives them in different places.

Assays:
Type in all cases: cell-based, Staphylococcus aureus
S. aureus ATCC 25923 = assay: Antibacterial activity, pre-exposure (planktonic cells and biofilm formation); settings: for MIC: Staphylococcus aureus, ATCC25923, read-out: MIC (S. aureus); for Initial screening result (active = at least 60% inhibition of planktonic cells and biofilm formation): 50 μM, S. aureus
Description: (§1) The antimicrobial activity was assessed in a similar way for the initial screening and the dose–response evaluation against different bacterial strains. With the exception of the post-exposure experiment, the compounds were added to the wells along with the bacteria to test the ability of compounds to prevent bacterial growth and biofilm formation (pre-exposure). The compounds were diluted in DMSO and plated directly in 96-well plates before adding the bacterial culture, and plates were incubated for 18 h under aerobic conditions at 37 °C with shaking (220 rpm). The antibacterial activity of the compounds was assessed on planktonic cells and biofilms separately using two different measurements for each: optical density (turbidity) and resazurin reduction (viability) on planktonic cells and resazurin followed by a crystal violet staining assay (total biomass) on biofilms, as described in the following sections.
(§2) The resazurin staining was performed according to the protocol previously optimized with a few modifications.[46] Briefly, the planktonic solution was first transferred into a new 96-well plate and the OD of the planktonic solution was measured using a Varioskan LUX Multimode microplate reader (Thermo Scientific, Vantaa, Finland). Then, 10 μL of a 400 μM resazurin (R7017, Sigma-Aldrich, St. Louis, MO) diluted in phosphate-buffered saline (PBS) (Thermo Fisher Scientific, MA) was added to the wells (for a final resazurin concentration of 20 μM). The plate was incubated in the dark with shaking (220 rpm) for about 3–10 min at room temperature with S. aureus and A. baumannii (until the bacteria controls turned pink) or for 20 min at 37 °C with P. aeruginosa. Fluorescence was measured at λex = 560 nm and λem = 590 nm using the top optics of the Varioskan LUX Multimode microplate reader. The planktonic plate was then discarded. The original challenge plate containing the biofilms was washed once with PBS, and 200 μL of a 20 μM resazurin solution was added to the wells. The plate was incubated in the dark at 37 °C with shaking (220 rpm) for 30 min with S. aureus, 60 min with A. baumannii, and 90 min with P. aeruginosa. Fluorescence was measured as described for the planktonic solution. The biofilms were next treated with crystal violet staining.
(§3) After removing the resazurin solution from the plate, biofilms were fixed with ethanol 100% for 15 min at room temperature. Ethanol was then removed, and the biofilms were left to air-dry completely at RT. Crystal violet, diluted to 1:100 in deionized water from the 2.3% commercial solution (HT90132, Sigma-Aldrich, St. Louis, MO), was added to the wells and, after a 5 min incubation with the dye, the biofilms were washed twice with deionized water and left to air-dry for about 10 min. The dye was solubilized in ethanol 100% for 1 h, and absorbance was measured at 595 nm using a Multiskan Sky microplate spectrophotometer (Thermo Scientific, Vantaa, Finland).

S. aureus P2 = assay: Antibacterial activity, pre-exposure; settings: S. aureus P2, pre-exposure, 50 µM, ± SD; for inhibition at 50 µM: Staphylococcus aureus
Description: as §1, §2, §3

S. aureus ATCC 12598 = assay: Antibacterial activity, pre-exposure; settings: S. aureus ATCC 12598, pre-exposure, 50 µM, ± SD; for inhibition at 50 µM: Staphylococcus aureus, ATCC12598
Description: as §1, §2, §3

[1] = read-out: Average inhibition %, biofilms biomass
[2] = read-out: Average inhibition %, planktonic cells turbidity

SMILES	MIC (S. aureus ATCC 25923) [µM]	other results
NC(CO)(CO)CCc1ccc(OCc2ccccc2)cc1 [Compound 25, 2-Amino-2-[4-(benzyloxy)phenethyl]propane-1,3-diol]	> 100	–
COc1ccc(-c2ccc(CCC(N)(CO)CO)cc2)cc1OC [Compound 13, 2-Amino-2-[2-(3′,4′-dimethoxy-[1,1′-biphenyl]-4-yl)ethyl]propane-1,3-diol]	> 100	–
NC(CO)(CO)CCc1ccc(/C=C/Cc2ccccc2)cc1 [Compound 16, (E)-2-Amino-2-[4-(3-phenylprop-1-en-1-yl)phenethyl]propane-1,3-diol]	> 100	–
CCCCCCc1ccc(CCC(N)(CO)CO)cc1 [Compound 10, 2-Amino-2-(4-hexylphenethyl)propane-1,3-diol]	100 (≈ 27.9 µg/mL)	Initial screening result (active = at least 60% inhibition of planktonic cells and biofilm formation) (S. aureus ATCC 25923): only limited activity against S. aureus biofilms
NC(CO)(CO)CCc1ccc(Cc2ccccc2)cc1 [Compound 12, 2-Amino-2-(4-benzylphenethyl)propane-1,3-diol]	> 100	–
NC(CO)(CO)CCc1ccc(-c2ccc(OCc3ccccc3)cc2)cc1 [Compound 14, 2-Amino-2-[2-[4′-(benzyloxy)-[1,1′-biphenyl]-4-yl]ethyl]propane-1,3-diol]	> 100	–
CC1(C)S[C@@H]2[C@H](NC(=O)Cc3ccccc3)C(=O)N2[C@H]1C(=O)O [Penicillin-G, reference compound]	–	Average inhibition %, biofilms viability (S. aureus P2): 9.5 ± 9.8%; Average inhibition %, planktonic cells viability (S. aureus P2): 14.9 ± 10.3%; inhibition at 50 µM (S. aureus P2; [1]): 17.4 ± 13.2%; inhibition at 50 µM (S. aureus P2; [2]): 12.2 ± 14.5%; Average inhibition %, biofilms viability (S. aureus ATCC 12598): 97.5 ± 1.5%; Average inhibition %, planktonic cells viability (S. aureus ATCC 12598): 99.7 ± 0%; inhibition at 50 µM (S. aureus ATCC 12598; [1]): 95.8 ± 1%; inhibition at 50 µM (S. aureus ATCC 12598; [2]): 99.7%

Continued, in another order:

MIC (S. aureus ATCC 25923) [µM]	SMILES	other results
> 100	NC(CO)(CO)CCc1ccc(OCc2ccc(C(F)(F)F)nc2)cc1 [Compound 27]	–
> 100	NC(CO)(CO)CCc1ccc2ccccc2n1 [Compound 33, 2-Amino-2-[2-(quinolin-2-yl)ethyl]propane-1,3-diol]	–
> 100	NC(CO)(CO)CCc1ccc(OCc2ccc3ccc(Cl)cc3n2)cc1 [Compound 28, 2-Amino-2-[4-[(7-chloroquinolin-2-yl)methoxy]phenethyl]propane-1,3-diol]	–
> 100	NC(CO)(CO)CCc1ccc(OCc2ccc(C(F)(F)F)cc2)cc1 [Compound 26, 2-Amino-2-[4-[[4-(trifluoromethyl)benzyl]oxy]phenethyl]propane-1,3-diol]	–
> 100	CCCCc1ccc(COc2ccc(CCC(N)(CO)CO)cc2)cc1 [Compound 29, 2-Amino-2-[4-[(4-butylbenzyl)oxy]phenethyl]propane-1,3-diol]	–
100 (≈ 30.8 µg/mL)	CCCCCCCCc1ccc(CCC(N)(CO)CO)nc1 [Compound 61, 2-Amino-2-[2-(5-octylpyridin-2-yl)ethyl]propane-1,3-diol]	Initial screening result (active = at least 60% inhibition of planktonic cells and biofilm formation) (S. aureus ATCC 25923): did not show an inhibitory activity comparable to fingolimod
